Measured values taken from patent US9738612B2, “Methylacryloyl benzimidazolone derivative and anti-tumour use thereof” (SHANGHAI NATURE STANDARD R&D AND BIOTECH CO., LTD, priority 2014, dated 2017).

Tests used:
Assay in all cases: Tumor-associated kinase inhibition test
Type in all cases: biochemical
Conditions in all cases: read-out: Inhibitory rate (%)
MST2(h) = molecular target: T1, MST2(h) (Homo sapiens, UniProt Q13188)
T1 construct: purchased Eurofins Pharma Discovery Services UK Limited
Excerpt: (§1) Eurofins Pharma Discovery Services UK Limited completed and reported this experiment.

PKCη(h) = molecular target: T2, PKCη(h) (Homo sapiens, UniProt P24723)
T2 construct: purchased Eurofins Pharma Discovery Services UK Limited
Excerpt: as §1

MAPK2(h) = molecular target: T3, MAPK2(h) (Homo sapiens, UniProt P28482)
T3 construct: purchased Eurofins Pharma Discovery Services UK Limited
Excerpt: as §1

PRK2(h) = molecular target: T4, PRK2(h) (Homo sapiens, UniProt Q16513)
T4 construct: purchased Eurofins Pharma Discovery Services UK Limited
Excerpt: as §1

CK2(h) = molecular target: T5, CK2(h) (Homo sapiens, UniProt P68400)
T5 construct: purchased Eurofins Pharma Discovery Services UK Limited (contract testing)
Excerpt: as §1

PKBγ(h) = molecular target: T6, PKBγ(h) (Homo sapiens, UniProt Q9Y243)
T6 construct: purchased Eurofins Pharma Discovery Services UK Limited
Excerpt: as §1

PIP4K2α(h) = molecular target: T7, PIP4K2α(h) (Homo sapiens, UniProt P48426)
T7 construct: purchased Eurofins Pharma Discovery Services UK Limited (contract assay)
Excerpt: as §1

FGFR3(h) = molecular target: T8, FGFR3(h) (Homo sapiens, UniProt P22607)
T8 construct: purchased Eurofins Pharma Discovery Services UK Limited (contract testing)
Excerpt: as §1

Fyn(h) = molecular target: T9, Fyn(h) (Homo sapiens, UniProt P06241)
T9 construct: purchased Eurofins Pharma Discovery Services UK Limited (contract testing)
Excerpt: as §1

JNK1α1(h) = molecular target: T10, JNK1α1(h) (Homo sapiens, UniProt P45983)
T10 construct: purchased Eurofins Pharma Discovery Services UK Limited (contract testing)
Excerpt: as §1

PI3Kinase(p110β/p85α)(h) = molecular target: T11, PI3Kinase(p110β/p85α)(h) (Homo sapiens, UniProt P42338)
T11 construct: purchased Eurofins Pharma Discovery Services UK Limited (contract assay)
Excerpt: as §1

Met(h) = molecular target: T12, Met(h) (Homo sapiens, UniProt P08581)
T12 construct: purchased Eurofins Pharma Discovery Services UK Limited
Excerpt: as §1

CDK2/cyclinE(h) = molecular target: T13, CDK2/cyclinE(h) (Homo sapiens, UniProt P24941)
T13 construct: purchased Eurofins Pharma Discovery Services UK Limited (contract assay service)
Excerpt: as §1

FGFR1(h) = molecular target: T14, FGFR1(h) (Homo sapiens, UniProt P11362)
T14 construct: purchased Eurofins Pharma Discovery Services UK Limited (contract testing)
Excerpt: as §1

Rsk3(h) = molecular target: T15, Rsk3(h) (Homo sapiens, UniProt Q15349)
T15 construct: purchased Eurofins Pharma Discovery Services UK Limited
Excerpt: as §1

NEK2(h) = molecular target: T16, NEK2(h) (Homo sapiens, UniProt P51955)
T16 construct: purchased Eurofins Pharma Discovery Services UK Limited
Excerpt: as §1

PKBα(h) = molecular target: T17, PKBα(h) (Homo sapiens, UniProt P31749)
T17 construct: purchased Eurofins Pharma Discovery Services UK Limited
Excerpt: as §1

PKCι(h) = molecular target: T18, PKCι(h) (Homo sapiens, UniProt P41743)
T18 construct: purchased Eurofins Pharma Discovery Services UK Limited
Excerpt: as §1

PEK(h) = molecular target: T19, PEK(h) (Homo sapiens, UniProt Q9NZJ5)
T19 construct: purchased Eurofins Pharma Discovery Services UK Limited
Excerpt: as §1

Ret(h) = molecular target: T20, Ret(h) (Homo sapiens, UniProt P07949)
T20 construct: purchased Eurofins Pharma Discovery Services UK Limited
Excerpt: as §1

p70S6K(h) = molecular target: T21, p70S6K(h) (Homo sapiens, UniProt P23443)
T21 construct: purchased Eurofins Pharma Discovery Services UK Limited
Excerpt: as §1

PKCθ(h) = molecular target: T22, PKCθ(h) (Homo sapiens, UniProt Q04759)
T22 construct: purchased Eurofins Pharma Discovery Services UK Limited
Excerpt: as §1

MARK1(h) = molecular target: T23, MARK1(h) (Homo sapiens, UniProt Q9P0L2)
T23 construct: purchased Eurofins Pharma Discovery Services UK Limited
Excerpt: as §1

ALK(h) = molecular target: T24, ALK(h) (Homo sapiens, UniProt Q9UM73)
T24 construct: purchased Eurofins Pharma Discovery Services UK Limited (contract assay service)
T24 sequence (Q9UM73 19-1620): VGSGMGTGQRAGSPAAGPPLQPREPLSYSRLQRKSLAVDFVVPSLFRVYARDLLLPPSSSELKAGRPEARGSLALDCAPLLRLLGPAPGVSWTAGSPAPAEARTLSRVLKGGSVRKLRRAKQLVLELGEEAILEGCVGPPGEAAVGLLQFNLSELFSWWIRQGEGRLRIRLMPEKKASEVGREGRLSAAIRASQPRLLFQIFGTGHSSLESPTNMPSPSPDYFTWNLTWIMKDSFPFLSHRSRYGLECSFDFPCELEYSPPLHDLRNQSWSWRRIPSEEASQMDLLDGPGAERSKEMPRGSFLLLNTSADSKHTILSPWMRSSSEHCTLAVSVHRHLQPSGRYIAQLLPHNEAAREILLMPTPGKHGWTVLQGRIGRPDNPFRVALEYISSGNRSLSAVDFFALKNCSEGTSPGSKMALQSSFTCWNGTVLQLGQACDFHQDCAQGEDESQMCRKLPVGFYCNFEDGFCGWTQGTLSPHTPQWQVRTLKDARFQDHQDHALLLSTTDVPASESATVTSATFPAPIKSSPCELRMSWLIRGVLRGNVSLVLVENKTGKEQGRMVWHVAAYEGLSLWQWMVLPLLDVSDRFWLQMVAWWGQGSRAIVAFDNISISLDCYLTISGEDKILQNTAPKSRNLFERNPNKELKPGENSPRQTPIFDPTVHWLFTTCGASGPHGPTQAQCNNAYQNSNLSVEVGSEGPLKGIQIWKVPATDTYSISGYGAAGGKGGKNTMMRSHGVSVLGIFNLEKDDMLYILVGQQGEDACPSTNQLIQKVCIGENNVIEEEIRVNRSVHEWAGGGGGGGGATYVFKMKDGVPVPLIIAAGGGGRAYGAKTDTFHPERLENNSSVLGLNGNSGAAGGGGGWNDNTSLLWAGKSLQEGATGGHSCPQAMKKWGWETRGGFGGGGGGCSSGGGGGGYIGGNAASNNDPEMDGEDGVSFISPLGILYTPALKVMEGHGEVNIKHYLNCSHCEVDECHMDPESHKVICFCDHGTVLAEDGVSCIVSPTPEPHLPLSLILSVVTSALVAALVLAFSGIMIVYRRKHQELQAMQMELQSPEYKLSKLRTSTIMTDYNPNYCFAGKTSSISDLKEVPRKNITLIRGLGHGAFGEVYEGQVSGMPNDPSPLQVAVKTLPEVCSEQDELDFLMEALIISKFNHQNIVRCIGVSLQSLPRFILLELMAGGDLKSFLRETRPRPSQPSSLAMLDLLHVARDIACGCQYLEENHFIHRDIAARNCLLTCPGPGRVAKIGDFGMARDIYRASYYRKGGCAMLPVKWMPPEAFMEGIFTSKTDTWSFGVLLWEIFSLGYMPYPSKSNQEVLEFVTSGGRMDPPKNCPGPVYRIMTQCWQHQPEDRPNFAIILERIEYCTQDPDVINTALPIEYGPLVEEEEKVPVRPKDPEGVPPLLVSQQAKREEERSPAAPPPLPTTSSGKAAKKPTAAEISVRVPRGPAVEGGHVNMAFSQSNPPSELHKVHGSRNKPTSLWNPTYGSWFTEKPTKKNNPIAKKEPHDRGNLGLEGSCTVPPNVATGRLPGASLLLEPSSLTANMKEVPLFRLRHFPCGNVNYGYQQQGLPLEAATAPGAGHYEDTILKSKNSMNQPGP
Excerpt: as §1

Pim-1(h) = molecular target: T25, Pim-1(h) (Homo sapiens, UniProt P11309)
T25 construct: purchased Eurofins Pharma Discovery Services UK Limited
Excerpt: as §1

PIP5K1α(h) = molecular target: T26, PIP5K1α(h) (Homo sapiens, UniProt Q99755)
T26 construct: purchased Eurofins Pharma Discovery Services UK Limited (contract assay)
Excerpt: as §1

CHK2(h) = molecular target: T27, CHK2(h) (Homo sapiens, UniProt O96017)
T27 construct: purchased Eurofins Pharma Discovery Services UK Limited (contract assay service)
Excerpt: as §1

PKD2(h) = molecular target: T28, PKD2(h) (Homo sapiens, UniProt Q9BZL6)
T28 construct: purchased Eurofins Pharma Discovery Services UK Limited
Excerpt: as §1

PIP5K1γ(h) = molecular target: T29, PIP5K1γ(h) (Homo sapiens, UniProt O60331)
T29 construct: purchased Eurofins Pharma Discovery Services UK Limited (contract assay)
Excerpt: as §1

Plk1(h) = molecular target: T30, Plk1(h) (Homo sapiens, UniProt P53350)
T30 construct: purchased Eurofins Pharma Discovery Services UK Limited
Excerpt: as §1

IKKα(h) = molecular target: T31, IKKα(h) (Homo sapiens, UniProt O15111)
T31 construct: purchased Eurofins Pharma Discovery Services UK Limited (contract testing)
Excerpt: as §1

PKCδ(h) = molecular target: T32, PKCδ(h) (Homo sapiens, UniProt Q05655)
T32 construct: purchased Eurofins Pharma Discovery Services UK Limited
Excerpt: as §1

PAK2(h) = molecular target: T33, PAK2(h) (Homo sapiens, UniProt Q13177)
T33 construct: purchased Eurofins Pharma Discovery Services UK Limited
Excerpt: as §1

Blk(h) = molecular target: T34, Blk(h) (Homo sapiens, UniProt P51451)
T34 construct: purchased Eurofins Pharma Discovery Services UK Limited (contract assay service)
Excerpt: as §1

MKK6(h) = molecular target: T35, MKK6(h) (Homo sapiens, UniProt P52564)
T35 construct: purchased Eurofins Pharma Discovery Services UK Limited
T35 sequence (P52564 whole entry): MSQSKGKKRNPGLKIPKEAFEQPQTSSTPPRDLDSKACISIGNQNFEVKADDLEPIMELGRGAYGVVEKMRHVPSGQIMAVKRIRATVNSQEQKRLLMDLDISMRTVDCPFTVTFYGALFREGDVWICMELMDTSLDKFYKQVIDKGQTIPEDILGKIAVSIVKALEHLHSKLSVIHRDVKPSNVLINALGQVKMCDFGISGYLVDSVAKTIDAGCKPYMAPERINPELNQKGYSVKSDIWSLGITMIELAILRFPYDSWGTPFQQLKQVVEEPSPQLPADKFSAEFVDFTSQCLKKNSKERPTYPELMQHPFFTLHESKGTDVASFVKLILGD
Excerpt: as §1

EGFR(h) = molecular target: T36, EGFR(h) (Homo sapiens, UniProt P00533)
T36 construct: purchased Eurofins Pharma Discovery Services UK Limited (contract testing)
T36 sequence (P00533 25-1210): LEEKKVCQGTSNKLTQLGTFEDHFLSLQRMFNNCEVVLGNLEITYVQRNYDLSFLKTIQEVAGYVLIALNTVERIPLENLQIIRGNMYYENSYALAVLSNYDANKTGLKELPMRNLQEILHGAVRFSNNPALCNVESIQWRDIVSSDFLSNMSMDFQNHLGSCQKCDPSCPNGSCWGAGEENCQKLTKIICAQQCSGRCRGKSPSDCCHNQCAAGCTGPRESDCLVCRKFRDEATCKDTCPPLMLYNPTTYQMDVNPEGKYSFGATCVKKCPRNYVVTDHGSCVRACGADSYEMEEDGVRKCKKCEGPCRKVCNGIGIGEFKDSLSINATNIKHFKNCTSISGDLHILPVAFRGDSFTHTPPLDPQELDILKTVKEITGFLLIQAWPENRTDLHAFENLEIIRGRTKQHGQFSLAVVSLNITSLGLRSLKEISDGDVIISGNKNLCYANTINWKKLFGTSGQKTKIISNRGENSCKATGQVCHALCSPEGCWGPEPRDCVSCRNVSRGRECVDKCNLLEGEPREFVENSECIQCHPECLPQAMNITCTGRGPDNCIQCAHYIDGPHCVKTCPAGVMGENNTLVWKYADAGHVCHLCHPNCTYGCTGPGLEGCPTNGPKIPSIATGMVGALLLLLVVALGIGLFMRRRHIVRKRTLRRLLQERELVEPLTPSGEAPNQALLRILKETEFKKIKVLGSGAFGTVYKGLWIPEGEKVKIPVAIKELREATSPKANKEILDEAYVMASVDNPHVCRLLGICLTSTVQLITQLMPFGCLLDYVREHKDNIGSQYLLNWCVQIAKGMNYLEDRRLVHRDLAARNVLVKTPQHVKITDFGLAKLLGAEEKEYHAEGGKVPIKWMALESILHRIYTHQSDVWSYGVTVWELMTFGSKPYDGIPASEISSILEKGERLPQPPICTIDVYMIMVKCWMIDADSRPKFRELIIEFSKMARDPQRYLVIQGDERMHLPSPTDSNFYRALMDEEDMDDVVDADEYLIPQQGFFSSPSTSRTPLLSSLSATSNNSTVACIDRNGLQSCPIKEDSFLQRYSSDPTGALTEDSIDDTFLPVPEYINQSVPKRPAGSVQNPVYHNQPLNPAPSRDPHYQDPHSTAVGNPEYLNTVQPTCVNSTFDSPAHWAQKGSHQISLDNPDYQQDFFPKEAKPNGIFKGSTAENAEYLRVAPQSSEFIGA
Excerpt: as §1

LKB1(h) = molecular target: T37, LKB1(h) (Homo sapiens, UniProt Q15831)
T37 construct: purchased Eurofins Pharma Discovery Services UK Limited
T37 sequence (Q15831 whole entry): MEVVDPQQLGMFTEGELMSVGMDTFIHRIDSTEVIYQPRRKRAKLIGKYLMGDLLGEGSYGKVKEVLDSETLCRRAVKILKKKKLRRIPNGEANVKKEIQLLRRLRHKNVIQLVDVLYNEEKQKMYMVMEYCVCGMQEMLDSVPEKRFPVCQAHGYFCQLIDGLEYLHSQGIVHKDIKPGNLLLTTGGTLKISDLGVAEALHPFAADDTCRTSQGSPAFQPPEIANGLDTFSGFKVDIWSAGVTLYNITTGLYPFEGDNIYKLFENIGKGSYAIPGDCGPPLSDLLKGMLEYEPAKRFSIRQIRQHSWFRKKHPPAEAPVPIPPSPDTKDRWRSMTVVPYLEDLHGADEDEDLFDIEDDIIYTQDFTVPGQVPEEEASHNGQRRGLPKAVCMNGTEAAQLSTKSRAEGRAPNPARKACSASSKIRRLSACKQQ
T37 sequence (Q7RTN6 whole entry partner): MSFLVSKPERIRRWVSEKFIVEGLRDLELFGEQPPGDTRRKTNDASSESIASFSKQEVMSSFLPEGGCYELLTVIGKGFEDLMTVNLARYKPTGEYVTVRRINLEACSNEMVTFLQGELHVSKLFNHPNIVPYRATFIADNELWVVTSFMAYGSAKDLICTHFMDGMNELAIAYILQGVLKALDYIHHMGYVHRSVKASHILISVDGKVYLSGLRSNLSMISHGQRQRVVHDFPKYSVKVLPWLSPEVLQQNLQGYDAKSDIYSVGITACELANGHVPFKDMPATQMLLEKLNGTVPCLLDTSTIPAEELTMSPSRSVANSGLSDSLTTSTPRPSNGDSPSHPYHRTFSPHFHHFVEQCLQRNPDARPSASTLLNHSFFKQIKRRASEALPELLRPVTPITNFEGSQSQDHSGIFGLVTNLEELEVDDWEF
T37 sequence (Q9Y376 whole entry partner): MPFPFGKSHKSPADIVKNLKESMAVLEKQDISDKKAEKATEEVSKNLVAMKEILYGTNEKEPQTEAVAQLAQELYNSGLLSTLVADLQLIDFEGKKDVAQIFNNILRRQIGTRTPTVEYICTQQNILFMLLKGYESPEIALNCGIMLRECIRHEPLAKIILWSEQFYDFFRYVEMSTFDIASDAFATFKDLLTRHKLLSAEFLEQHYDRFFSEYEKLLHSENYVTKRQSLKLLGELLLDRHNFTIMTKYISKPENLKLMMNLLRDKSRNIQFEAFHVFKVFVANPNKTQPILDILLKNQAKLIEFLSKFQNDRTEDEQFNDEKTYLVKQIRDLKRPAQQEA
Excerpt: as §1

PRAK(h) = molecular target: T38, PRAK(h) (Homo sapiens, UniProt Q8IW41)
T38 construct: purchased Eurofins Pharma Discovery Services UK Limited
T38 sequence (Q8IW41 whole entry): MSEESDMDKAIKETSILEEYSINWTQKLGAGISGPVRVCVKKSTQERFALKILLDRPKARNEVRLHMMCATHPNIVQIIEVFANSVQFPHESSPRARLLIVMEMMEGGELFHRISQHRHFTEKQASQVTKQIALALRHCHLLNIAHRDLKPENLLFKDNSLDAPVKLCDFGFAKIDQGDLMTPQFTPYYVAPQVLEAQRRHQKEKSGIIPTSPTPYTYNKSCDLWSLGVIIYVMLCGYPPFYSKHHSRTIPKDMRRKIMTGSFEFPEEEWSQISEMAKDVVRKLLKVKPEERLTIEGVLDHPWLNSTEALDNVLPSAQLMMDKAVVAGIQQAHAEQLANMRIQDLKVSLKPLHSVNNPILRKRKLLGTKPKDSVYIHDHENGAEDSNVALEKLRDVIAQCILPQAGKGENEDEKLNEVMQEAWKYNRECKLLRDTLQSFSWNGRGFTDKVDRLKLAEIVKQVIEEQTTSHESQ
Excerpt: as §1

JAK2(h) = molecular target: T39, JAK2(h) (Homo sapiens, UniProt O60674)
T39 construct: purchased Eurofins Pharma Discovery Services UK Limited (contract testing)
Excerpt: as §1

KDR(h) = molecular target: T40, KDR(h) (Homo sapiens, UniProt P35968)
T40 construct: purchased Eurofins Pharma Discovery Services UK Limited
Excerpt: as §1

## C=C(C)n1c(=O)n(C(C)=O)c2ncc(Br)cc21 [FD162]
MST2(h)
  inhibition at 10 µM: 1%
PKCη(h)
  inhibition at 10 µM: 2%
MAPK2(h)
  inhibition at 10 µM: -6%
PRK2(h)
  inhibition at 10 µM: -9%
CK2(h)
  inhibition at 10 µM: 15%
PKBγ(h)
  inhibition at 10 µM: 8%
PIP4K2α(h)
  inhibition at 10 µM: -2%
FGFR3(h)
  inhibition at 10 µM: 7%
Fyn(h)
  inhibition at 10 µM: 2%
JNK1α1(h)
  inhibition at 10 µM: 4%
PI3Kinase(p110β/p85α)(h)
  inhibition at 10 µM: -3%
Met(h)
  inhibition at 10 µM: -9%
CDK2/cyclinE(h)
  inhibition at 10 µM: 0%
FGFR1(h)
  inhibition at 10 µM: 4%
Rsk3(h)
  inhibition at 10 µM: 2%
NEK2(h)
  inhibition at 10 µM: -6%
PKBα(h)
  inhibition at 10 µM: 4%
PKCι(h)
  inhibition at 10 µM: 11%
PEK(h)
  inhibition at 10 µM: 0%
Ret(h)
  inhibition at 10 µM: 7%
p70S6K(h)
  inhibition at 10 µM: 3%
PKCθ(h)
  inhibition at 10 µM: -3%
MARK1(h)
  inhibition at 10 µM: -1%
ALK(h)
  inhibition at 10 µM: 16%
Pim-1(h)
  inhibition at 10 µM: 3%
PIP5K1α(h)
  inhibition at 10 µM: -2%
CHK2(h)
  inhibition at 10 µM: 4%
PKD2(h)
  inhibition at 10 µM: 11%
PIP5K1γ(h)
  inhibition at 10 µM: -1%
Plk1(h)
  inhibition at 10 µM: 7%
IKKα(h)
  inhibition at 10 µM: 5%
PKCδ(h)
  inhibition at 10 µM: 18%
PAK2(h)
  inhibition at 10 µM: 8%
Blk(h)
  inhibition at 10 µM: -5%
MKK6(h)
  inhibition at 10 µM: 5%
EGFR(h)
  inhibition at 10 µM: 0%
LKB1(h)
  inhibition at 10 µM: 8%
PRAK(h)
  inhibition at 10 µM: 10%
JAK2(h)
  inhibition at 10 µM: 7%
KDR(h)
  inhibition at 10 µM: -1%
